ChEMBL document CHEMBL1201862, “PubChem BioAssay data set” (2004)
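48-hour exposure; five concentrations; linearly interpolated endpoints. Here, GI50 denotes the concentration required for 50% inhibition of growth.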 Activity calls are given as the source filed them. Cut-off read from the data, not from the text of the source: active = GI50 up to about 1.1 µM and inactive = higher.

Legend:
Assay in all cases: DTP human tumour cell line panel, 48 h
786-0 = tested on: 786-0
DU-145 = tested on: DU-145
HCT-116 = tested on: HCT-116
K562 = tested on: K562
NCI/ADR-RES = tested on: NCI/ADR-RES
PC-3 = tested on: PC-3
RXF 393 = tested on: RXF 393
SF-268 = tested on: SF-268
SK-MEL-28 = tested on: SK-MEL-28
SNB-19 = tested on: SNB-19
SR = tested on: SR
T47D = tested on: T47D
UACC-257 = tested on: UACC-257
UACC-62 = tested on: UACC-62
UO-31 = tested on: UO-31
CCRF-CEM = tested on: CCRF-CEM
COLO 205 = tested on: COLO 205
MCF7 = tested on: MCF7

Measured: GI50

CN(C)CCNc1ccccn1
inactive: 786-0 > 100 µM | DU-145 > 100 µM | HCT-116 > 100 µM | K562 > 100 µM | NCI/ADR-RES > 100 µM | PC-3 > 100 µM | RXF 393 > 100 µM | SF-268 > 100 µM | SK-MEL-28 > 100 µM | SNB-19 > 100 µM | SR > 100 µM | T47D > 100 µM | UACC-257 > 100 µM | UACC-62 > 100 µM | UO-31 > 100 µM

CNC(=O)CCCNC(=O)CCCC(=O)N(C)C
inactive: 786-0 > 100 µM | CCRF-CEM > 100 µM | COLO 205 > 100 µM | DU-145 > 100 µM | HCT-116 > 100 µM | K562 > 100 µM | MCF7 > 100 µM | NCI/ADR-RES > 100 µM | PC-3 > 100 µM | SF-268 > 100 µM | SK-MEL-28 > 100 µM | SNB-19 > 100 µM | T47D > 100 µM | UACC-257 > 100 µM | UACC-62 > 100 µM | UO-31 > 100 µM

Cc1cc(Cl)ccc1C1OC(=O)c2c1ccc1ccccc21 (centres undefined)
inactive: 786-0 97.5 µM | CCRF-CEM > 100 µM | COLO 205 > 100 µM | HCT-116 > 100 µM | K562 > 100 µM | SF-268 > 100 µM | SK-MEL-28 > 100 µM | SNB-19 > 100 µM | UACC-257 > 100 µM | UACC-62 > 100 µM | UO-31 > 100 µM

O=C1C[C@@H](c2ccc(O)cc2)[C@@]2(O1)C(=O)O[C@H]([C@@H](O)CO)[C@@H]2O
inactive: 786-0 > 100 µM | CCRF-CEM > 100 µM | COLO 205 > 100 µM | DU-145 > 100 µM | HCT-116 > 100 µM | K562 > 100 µM | MCF7 > 100 µM | NCI/ADR-RES > 100 µM | PC-3 > 100 µM | SF-268 > 100 µM | SK-MEL-28 > 100 µM | SNB-19 > 100 µM | T47D > 100 µM | UACC-257 > 100 µM | UACC-62 > 100 µM | UO-31 > 100 µM

COc1ccc2c(C)cc(=O)oc2c1OC
inactive: 786-0 > 100 µM | CCRF-CEM > 100 µM | COLO 205 > 100 µM | DU-145 > 100 µM | HCT-116 > 100 µM | K562 > 100 µM | MCF7 > 100 µM | NCI/ADR-RES > 100 µM | PC-3 > 100 µM | SF-268 > 100 µM | SK-MEL-28 > 100 µM | SNB-19 > 100 µM | SR > 100 µM | UACC-257 > 100 µM | UACC-62 > 100 µM | UO-31 > 100 µM

CCOC(=O)NC(Nc1ccc(C)cc1)(C(F)(F)F)C(F)(F)F
inactive: 786-0 > 100 µM | CCRF-CEM > 100 µM | COLO 205 > 100 µM | DU-145 > 100 µM | HCT-116 > 100 µM | K562 > 100 µM | MCF7 > 100 µM | NCI/ADR-RES > 100 µM | PC-3 > 100 µM | SF-268 > 100 µM | SK-MEL-28 > 100 µM | SNB-19 > 100 µM | T47D > 100 µM | UACC-62 > 100 µM | UO-31 > 100 µM

CC(=O)c1ccc2c(c1)oc(=O)n2CCN1CCCCC1
inactive: 786-0 > 100 µM | CCRF-CEM 26.3 µM | COLO 205 > 100 µM | DU-145 > 100 µM | HCT-116 > 100 µM | K562 > 100 µM | MCF7 > 100 µM | NCI/ADR-RES > 100 µM | PC-3 > 100 µM | RXF 393 > 100 µM | SF-268 > 100 µM | SK-MEL-28 > 100 µM | SNB-19 > 100 µM | SR > 100 µM | UACC-257 > 100 µM | UACC-62 > 100 µM

CCOC(=O)C(C)(C)/C=C\C(Cl)=C(Cl)Cl
inactive: 786-0 > 100 µM | CCRF-CEM 71.6 µM | COLO 205 > 100 µM | DU-145 > 100 µM | HCT-116 > 100 µM | K562 > 100 µM | NCI/ADR-RES > 100 µM | PC-3 > 100 µM | RXF 393 > 100 µM | SF-268 > 100 µM | SK-MEL-28 > 100 µM | SNB-19 > 100 µM | SR > 100 µM | UACC-257 > 100 µM | UACC-62 > 100 µM | UO-31 > 100 µM

Cn1cnc(C(N)=[Se])c1N
inactive: 786-0 2.13 µM | CCRF-CEM 2.24 µM | COLO 205 2.09 µM | DU-145 4.1 µM | HCT-116 3.69 µM | MCF7 3.15 µM | NCI/ADR-RES 1.89 µM | PC-3 2.24 µM | RXF 393 1.6 µM | SF-268 1.95 µM | SK-MEL-28 3.39 µM | SNB-19 1.29 µM | T47D 3.65 µM | UACC-257 7.24 µM | UACC-62 2 µM | UO-31 2.07 µM

CC(C)=NNC1=NC(C)(C)P(=O)(NNc2ncccn2)S1 (centres undefined)
inactive: 786-0 > 100 µM | DU-145 > 100 µM | HCT-116 > 100 µM | K562 > 100 µM | MCF7 > 100 µM | PC-3 > 100 µM | RXF 393 > 100 µM | SF-268 > 100 µM | SK-MEL-28 > 100 µM | SNB-19 > 100 µM | T47D > 100 µM | UACC-257 > 100 µM | UACC-62 > 100 µM | UO-31 > 100 µM

N#Cc1nc(-c2ccccn2)oc1N
inactive: 786-0 > 100 µM | CCRF-CEM > 100 µM | COLO 205 > 100 µM | DU-145 > 100 µM | HCT-116 > 100 µM | K562 > 100 µM | MCF7 > 100 µM | PC-3 > 100 µM | RXF 393 > 100 µM | SF-268 > 100 µM | SK-MEL-28 > 100 µM | SNB-19 > 100 µM | SR > 100 µM | UACC-257 > 100 µM | UACC-62 > 100 µM | UO-31 > 100 µM

O=C1OCOC2(CCCC2)C1c1ccccc1 (centres undefined)
inactive: 786-0 > 100 µM | CCRF-CEM > 100 µM | COLO 205 > 100 µM | DU-145 > 100 µM | HCT-116 > 100 µM | K562 > 100 µM | NCI/ADR-RES > 100 µM | PC-3 > 100 µM | RXF 393 > 100 µM | SF-268 > 100 µM | SK-MEL-28 > 100 µM | SNB-19 > 100 µM | SR > 100 µM | T47D > 100 µM | UACC-257 > 100 µM | UACC-62 > 100 µM | UO-31 > 100 µM

Nc1ccc2c(c1)S(=O)(=O)c1cc(N)ccc1-2
inactive: 786-0 > 100 µM | COLO 205 > 100 µM | DU-145 > 100 µM | HCT-116 > 100 µM | K562 > 100 µM | MCF7 > 100 µM | NCI/ADR-RES > 100 µM | PC-3 > 100 µM | RXF 393 > 100 µM | SF-268 > 100 µM | SNB-19 > 100 µM | T47D > 100 µM | UACC-257 > 100 µM | UACC-62 > 100 µM | UO-31 > 100 µM
